Legend:
Cyclooxygenase-2 (COX-2) [1] = molecular target: T1, Cyclooxygenase-2 (COX-2) (Ovis aries, UniProt P79208); assay: purified enzyme, product formation and regioisomers by RP-HPLC-MS/MS; format: biochemical
T1 sequence (P79208 17-603): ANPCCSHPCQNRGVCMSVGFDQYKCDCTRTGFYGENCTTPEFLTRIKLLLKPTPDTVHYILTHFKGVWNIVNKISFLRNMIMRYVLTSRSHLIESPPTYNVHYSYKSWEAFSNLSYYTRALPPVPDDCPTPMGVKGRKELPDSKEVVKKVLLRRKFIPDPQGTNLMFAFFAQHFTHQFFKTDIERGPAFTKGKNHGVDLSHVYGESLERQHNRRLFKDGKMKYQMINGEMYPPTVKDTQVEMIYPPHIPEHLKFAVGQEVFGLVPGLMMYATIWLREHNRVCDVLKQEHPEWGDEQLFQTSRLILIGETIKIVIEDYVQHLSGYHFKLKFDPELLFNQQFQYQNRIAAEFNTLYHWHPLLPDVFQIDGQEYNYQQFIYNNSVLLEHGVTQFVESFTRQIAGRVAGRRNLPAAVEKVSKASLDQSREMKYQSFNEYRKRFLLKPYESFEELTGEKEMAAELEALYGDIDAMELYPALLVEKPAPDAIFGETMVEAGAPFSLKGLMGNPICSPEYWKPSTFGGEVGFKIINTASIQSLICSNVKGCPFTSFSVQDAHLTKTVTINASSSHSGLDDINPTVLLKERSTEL

Cyclooxygenase-2 (COX-2) [2] = molecular target: T1, Cyclooxygenase-2 (COX-2); assay: purified enzyme turnover, RP-HPLC-MS/MS; format: biochemical

Row | SMILES | purified enzyme, product formation and regioisomers by RP-HPLC-MS/MS (Cyclooxygenase-2 (COX-2) [1]) | purified enzyme turnover, RP-HPLC-MS/MS (Cyclooxygenase-2 (COX-2) [2])
1 | CC(=O)Oc1ccccc1C(=O)O [ASA] | ASA increased the rate and extent of formation of OH-DPA (Fig. 3c) and shifted the distribution of hydroxy regioisomers | –
2 | CC/C=C\C/C=C\C/C=C\C/C=C\C/C=C\CCCCCC(=O)O [DPA, (7Z,10Z,13Z,16Z,19Z)-docosapentaenoic acid] | – | purified ovine COX-2 generated the EFOX-D5 precursor, hydroxy-DPA (OH-DPA), from DPA

— PMC3077712 (2010)
